Laboratory results published in patent publication US11814367B2, “Inhibitors of glycogen synthase 1 (GYS1) and methods of use thereof” (Maze Therapeutics, Inc., priority 2021, dated 2023).

What was measured:
[1] = target: hGYS1 enzyme (recombinant hGYS1/GN1 protein) (Homo sapiens (Human), UniProt P13807); test: GYS1 coupled enzyme assay (PK/LDH); format: biochemical; conditions: hGYS1/GN1 50 nM, UDP-Glucose 0.8 mM, G6P 1 mM; geometric mean of at least 2 runs
[2] = tested on: hGYS1 enzyme / glycogen synthesis in HeLa cells; test: GYS1 cell based assay (glycogen synthesis, Glucose-glo); design: species or system human; conditions: Homo sapiens, HeLa, 24 h, 24 h incubation, 20 mM glucose, geometric mean of at least 2 runs
Summary of the method: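 HeLa cells starved 24 h in medium containing only 1× Glutamax were plated onto compound in medium with 20 mM glucose (1% DMSO final) for 24 h, 37 °C, 5% CO2. Acid lysates were Tris-quenched, glucoamylase-digested (pH 5.3, 1 h, 37 °C) and read by Glucose-glo luminescence. IC50 came from Hill fits, as geometric mean of ≥2 runs.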

[3] = target: hGYS2 enzyme (recombinant hGYS2/GN1 protein) (Homo sapiens (Human), UniProt P54840); test: GYS2 coupled enzyme assay (PK/LDH); format: biochemical; conditions: geometric mean of at least 2 assay runs on separate days, read-out: Avg_IC50
hGYS2 enzyme (recombinant hGYS2/GN1 protein), sequence (P54840 whole entry): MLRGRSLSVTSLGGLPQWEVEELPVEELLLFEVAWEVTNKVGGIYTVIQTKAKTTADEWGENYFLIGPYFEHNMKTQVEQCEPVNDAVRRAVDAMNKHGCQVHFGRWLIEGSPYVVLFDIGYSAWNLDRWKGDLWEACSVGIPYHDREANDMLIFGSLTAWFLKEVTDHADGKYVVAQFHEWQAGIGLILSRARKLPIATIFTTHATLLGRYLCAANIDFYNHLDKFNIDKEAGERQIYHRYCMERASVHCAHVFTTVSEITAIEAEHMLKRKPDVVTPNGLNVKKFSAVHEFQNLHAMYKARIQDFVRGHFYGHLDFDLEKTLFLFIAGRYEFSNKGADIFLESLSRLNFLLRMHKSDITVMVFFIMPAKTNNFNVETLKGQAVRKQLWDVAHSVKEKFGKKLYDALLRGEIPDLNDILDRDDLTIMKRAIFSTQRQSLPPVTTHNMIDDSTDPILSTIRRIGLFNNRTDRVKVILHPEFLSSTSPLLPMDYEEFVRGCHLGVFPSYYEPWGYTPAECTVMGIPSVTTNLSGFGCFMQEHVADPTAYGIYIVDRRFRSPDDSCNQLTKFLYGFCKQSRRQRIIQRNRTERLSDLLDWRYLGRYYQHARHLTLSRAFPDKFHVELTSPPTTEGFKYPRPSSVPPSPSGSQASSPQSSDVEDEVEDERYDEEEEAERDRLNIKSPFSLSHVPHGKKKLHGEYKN
hGYS2 enzyme (recombinant hGYS2/GN1 protein), sequence (P46976 whole entry partner): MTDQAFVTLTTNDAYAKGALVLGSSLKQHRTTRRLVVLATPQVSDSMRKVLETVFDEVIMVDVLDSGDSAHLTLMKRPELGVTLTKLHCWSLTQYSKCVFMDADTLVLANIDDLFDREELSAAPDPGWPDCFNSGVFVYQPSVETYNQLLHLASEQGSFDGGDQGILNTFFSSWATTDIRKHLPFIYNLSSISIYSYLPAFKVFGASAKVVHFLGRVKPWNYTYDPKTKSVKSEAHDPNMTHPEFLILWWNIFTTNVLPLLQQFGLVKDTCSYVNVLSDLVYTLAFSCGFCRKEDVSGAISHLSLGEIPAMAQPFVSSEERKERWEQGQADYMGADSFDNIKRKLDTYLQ
Summary of the method: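 IC50 came from Hill fits of duplicate percent inhibition, based on control-normalized slopes of 340 nm NADH decline read each minute for 10 min. The reaction held recombinant hGYS2/GN1 (200 nM) with glycogen, UDP-glucose, G6P and PEP, plus PK/LDH coupling at pH 7.5 and 2.5% DMSO.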

hGYS1 enzyme (recombinant hGYS1/GN1 protein), sequence (P13807 whole entry): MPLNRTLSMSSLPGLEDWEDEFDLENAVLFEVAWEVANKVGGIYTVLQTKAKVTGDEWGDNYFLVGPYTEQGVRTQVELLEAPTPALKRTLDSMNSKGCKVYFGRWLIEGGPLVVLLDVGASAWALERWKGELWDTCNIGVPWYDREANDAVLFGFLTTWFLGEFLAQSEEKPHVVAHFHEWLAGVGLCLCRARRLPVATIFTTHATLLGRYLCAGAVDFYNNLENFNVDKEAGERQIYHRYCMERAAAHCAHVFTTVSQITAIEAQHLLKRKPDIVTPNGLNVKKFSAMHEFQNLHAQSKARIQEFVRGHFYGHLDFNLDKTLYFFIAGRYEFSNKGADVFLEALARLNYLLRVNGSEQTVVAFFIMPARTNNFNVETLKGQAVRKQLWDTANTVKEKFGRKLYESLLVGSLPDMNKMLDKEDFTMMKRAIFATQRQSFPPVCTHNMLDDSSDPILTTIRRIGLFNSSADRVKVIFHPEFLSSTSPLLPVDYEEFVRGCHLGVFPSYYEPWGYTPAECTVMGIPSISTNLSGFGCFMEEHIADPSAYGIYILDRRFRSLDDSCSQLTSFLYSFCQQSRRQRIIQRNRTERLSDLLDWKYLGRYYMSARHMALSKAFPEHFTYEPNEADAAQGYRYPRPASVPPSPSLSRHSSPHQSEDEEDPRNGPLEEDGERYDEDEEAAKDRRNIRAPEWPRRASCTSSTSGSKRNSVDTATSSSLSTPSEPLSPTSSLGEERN
hGYS1 enzyme (recombinant hGYS1/GN1 protein), sequence (P46976 whole entry partner): as the sequence (P46976 whole entry partner) above

SMILES	IC50 [1]	IC50 [2]	IC50 [3]
O=C(N[C@@H](c1ccccc1)c1ccc(C2CC2)c(F)c1)[C@@H]1C[C@@H](F)CN1C(=O)Cn1c(=O)[nH]c2ccccc21 [Compound 456, (2S,4R)-N-[(S)-(4-cyclopropyl-3-fluorophenyl)(phenyl)methyl]-4-fluoro-1-[2-(2-oxo-2,3-dihydro-1H-1,3-benzodiazol-1-yl)acetyl]pyrrolidine-2-carboxamide]	55 nM	1080 nM	> 100 µM
O=C(N[C@@H](c1ccccc1)c1ccc(C2CC2)c(F)c1)[C@@H]1C[C@@H](F)CN1C(=O)Cc1n[nH]c2ccccc12 [Compound 458, (2S,4R)-N-[(S)-(4-cyclopropyl-3-fluorophenyl)(phenyl)methyl]-4-fluoro-1-[2-(1H-indazol-3-yl)acetyl]pyrrolidine-2-carboxamide]	71 nM	1330 nM	> 100 µM
O=C(N[C@@H](c1ccccc1)c1ccc(C2CC2)c(F)c1)[C@@H]1C[C@@H](F)CN1C(=O)CN1CCNCC1=O [Compound 465, (2S,4R)-N-[(S)-(4-cyclopropyl-3-fluorophenyl)(phenyl)methyl]-4-fluoro-1-[2-(2-oxopiperazin-1-yl)acetyl]pyrrolidine-2-carboxamide]	547 nM	6040 nM	> 100 µM
O=C(N[C@@H](c1ccccc1)c1ccc(C2CC2)c(F)c1)[C@@H]1C[C@@H](F)CN1C(=O)CN1CCN(CC(F)(F)F)CC1=O [Compound 466, (2S,4R)-N-[(S)-(4-cyclopropyl-3-fluorophenyl)(phenyl)methyl]-4-fluoro-1-{2-[2-oxo-4-(2,2,2-trifluoroethyl)piperazin-1-yl]acetyl}pyrrolidine-2-carboxamide]	238 nM	2320 nM	> 100 µM
O=C1Nc2ccccc2C1CC(=O)N1C[C@H](F)C[C@H]1C(=O)N[C@@H](c1ccccc1)c1ccc(C2CC2)c(F)c1 (stereo partly drawn) [Compound 467, (2S,4R)-N-[(S)-(4-cyclopropyl-3-fluorophenyl)(phenyl)methyl]-4-fluoro-1-[2-(2-oxo-2,3-dihydro-1H-indol-3-yl)acetyl]pyrrolidine-2-carboxamide]	324 nM	4810 nM	> 100 µM
Cc1cn(CC(=O)N2C[C@H](F)C[C@H]2C(=O)N[C@@H](c2ccccc2)c2ccc(C3CC3)c(F)c2)cn1 [Compound 468, (2S,4R)-N-[(S)-(4-cyclopropyl-3-fluorophenyl)(phenyl)methyl]-4-fluoro-1-[2-(4-methyl-1H-imidazol-1-yl)acetyl]pyrrolidine-2-carboxamide]	91 nM	1430 nM	> 100 µM
CCn1cc(NCC(=O)N2C[C@H](F)C[C@H]2C(=O)N[C@@H](c2ccccc2)c2ccc(C3CC3)c(F)c2)nn1 [Compound 469, (2S,4R)-N-[(S)-(4-cyclopropyl-3-fluorophenyl)(phenyl)methyl]-1-{2-[(1-ethyl-1H-1,2,3-triazol-4-yl)amino]acetyl}-4-fluoropyrrolidine-2-carboxamide]	61 nM	1180 nM	> 100 µM
CCn1ncc(NCC(=O)N2C[C@H](F)C[C@H]2C(=O)N[C@@H](c2ccccc2)c2ccc(C3CC3)c(F)c2)n1 [Compound 470, (2S,4R)-N-[(S)-(4-cyclopropyl-3-fluorophenyl)(phenyl)methyl]-1-{2-[(2-ethyl-2H-1,2,3-triazol-4-yl)amino]acetyl}-4-fluoropyrrolidine-2-carboxamide]	82 nM	960 nM	> 100 µM
CCn1ncc(N(C)CC(=O)N2C[C@H](F)C[C@H]2C(=O)N[C@@H](c2ccccc2)c2ccc(C3CC3)c(F)c2)n1 [Compound 474, (2S,4R)-N-[(S)-(4-cyclopropyl-3-fluorophenyl)(phenyl)methyl]-1-{2-[(2-ethyl-2H-1,2,3-triazol-4-yl)(methyl)amino]acetyl}-4-fluoropyrrolidine-2-carboxamide]	43 nM	880 nM	> 100 µM
CN(CC(=O)N1C[C@H](F)C[C@H]1C(=O)N[C@@H](c1ccccc1)c1ccc(C2CC2)c(F)c1)c1cnccn1 [Compound 475, (2S,4R)-N-[(S)-(4-cyclopropyl-3-fluorophenyl)(phenyl)methyl]-4-fluoro-1-{2-[methyl(pyrazin-2-yl)amino]acetyl} pyrrolidine-2-carboxamide]	77 nM	1290 nM	> 100 µM
O=C(N[C@@H](c1ccccc1)c1ccc(C2CC2)c(F)c1)[C@@H]1C[C@@H](F)CN1C(=O)Cc1ccc2ncnn2c1 [Compound 478, (2S,4R)-N-[(S)-(4-cyclopropyl-3-fluorophenyl)(phenyl)methyl]-4-fluoro-1-(2-{[1,2,4]triazolo[1,5-a]pyridin-6-yl}acetyl) pyrrolidine-2-carboxamide]	69 nM	1190 nM	68.2 µM
O=C(N[C@@H](c1ccccc1)c1ccc(C2CC2)c(F)c1)[C@@H]1C[C@@H](F)CN1C(=O)Cc1cnc2ccccn12 [Compound 479, (2S,4R)-N-[(S)-(4-cyclopropyl-3-fluorophenyl)(phenyl)methyl]-4-fluoro-1-(2-{imidazo[1,2-a]pyridin-3-yl}acetyl)pyrrolidine-2-carboxamide]	55 nM	1430 nM	> 100 µM

Stronger by IC50 [1], values ahead:

IC50 [1]	IC50 [2]	IC50 [3]	SMILES
39 nM	900 nM	> 100 µM	Cc1nccc(N(C)CC(=O)N2C[C@H](F)C[C@H]2C(=O)N[C@@H](c2ccccc2)c2ccc(C3CC3)c(F)c2)n1 [Compound 476, (2S,4R)-N-[(S)-(4-cyclopropyl-3-fluorophenyl)(phenyl)methyl]-4-fluoro-1-{2-[methyl(2-methylpyrimidin-4-yl)amino]acetyl} pyrrolidine-2-carboxamide]
32 nM	720 nM	> 100 µM	Cn1c(=O)n(CC(=O)N2C[C@H](F)C[C@H]2C(=O)N[C@@H](c2ccccc2)c2ccc(C3CC3)c(F)c2)c2ccccc21 [Compound 457, (2S,4R)-N-[(S)-(4-cyclopropyl-3-fluorophenyl)(phenyl)methyl]-4-fluoro-1-[2-(3-methyl-2-oxo-2,3-dihydro-1H-1,3-benzodiazol-1-yl)acetyl] pyrrolidine-2-carboxamide]
29 nM	700 nM	> 100 µM	O=C(N[C@@H](c1ccccc1)c1ccc(C2CC2)c(F)c1)[C@@H]1C[C@@H](F)CN1C(=O)CNc1cnccn1 [Compound 471, (2S,4R)-N-[(S)-(4-cyclopropyl-3-fluorophenyl)(phenyl)methyl]-4-fluoro-1-{2-[(pyrazin-2-yl)amino]acetyl}pyrrolidine-2-carboxamide]
28 nM	750 nM	> 100 µM	Cn1nc(CC(=O)N2C[C@H](F)C[C@H]2C(=O)N[C@@H](c2ccccc2)c2ccc(C3CC3)c(F)c2)c2ccccc21 [Compound 459, (2S,4R)-N-[(S)-(4-cyclopropyl-3-fluorophenyl)(phenyl)methyl]-4-fluoro-1-[2-(1-methyl-1H-indazol-3-yl)acetyl]pyrrolidine-2-carboxamide]
25 nM	670 nM	> 100 µM	Cn1cc(CC(=O)N2C[C@H](F)C[C@H]2C(=O)N[C@@H](c2ccccc2)c2ccc(C3CC3)c(F)c2)c2ccccc21 [Compound 463, (2S,4R)-N-[(S)-(4-cyclopropyl-3-fluorophenyl)(phenyl)methyl]-4-fluoro-1-[2-(1-methyl-1H-indol-3-yl)acetyl]pyrrolidine-2-carboxamide]
24 nM	640 nM	> 100 µM	Cn1c(CC(=O)N2C[C@H](F)C[C@H]2C(=O)N[C@@H](c2ccccc2)c2ccc(C3CC3)c(F)c2)cc2ccccc21 [Compound 462, (2S,4R)-N-[(S)-(4-cyclopropyl-3-fluorophenyl)(phenyl)methyl]-4-fluoro-1-[2-(1-methyl-1H-indol-2-yl)acetyl]pyrrolidine-2-carboxamide]
23 nM	650 nM	> 100 µM	Cc1nc2ccccc2n1CC(=O)N1C[C@H](F)C[C@H]1C(=O)N[C@@H](c1ccccc1)c1ccc(C2CC2)c(F)c1 [Compound 464, (2S,4R)-N-[(S)-(4-cyclopropyl-3-fluorophenyl)(phenyl)methyl]-4-fluoro-1-[2-(2-methyl-1H-1,3-benzodiazol-1-yl)acetyl]pyrrolidine-2-carboxamide]
22 nM	540 nM	> 100 µM	Cc1nccc(NCC(=O)N2C[C@H](F)C[C@H]2C(=O)N[C@@H](c2ccccc2)c2ccc(C3CC3)c(F)c2)n1 [Compound 472, (2S,4R)-N-[(S)-(4-cyclopropyl-3-fluorophenyl)(phenyl)methyl]-4-fluoro-1-{2-[(2-methylpyrimidin-4-yl)amino]acetyl} pyrrolidine-2-carboxamide]
20 nM	630 nM	> 100 µM	Cc1ccc2c(CC(=O)N3C[C@H](F)C[C@H]3C(=O)N[C@@H](c3ccccc3)c3ccc(C4CC4)c(F)c3)cccc2n1 [Compound 477, (2S,4R)-N-[(S)-(4-cyclopropyl-3-fluorophenyl)(phenyl)methyl]-4-fluoro-1-[2-(2-methylquinolin-5-yl)acetyl]pyrrolidine-2-carboxamide]
